Where two headings read alike, the source gives them in different places. One block for each molecule: values may come before it.
Tests used:
[1] = system: H+/K+ ATPase or proton pump in parietal cells; set-up: method as in Kromer et al., 1999; conditions: ref Kromer et al., 1999; cited from earlier work
[2] = Pharmacokinetics of oral omeprazole (40 mg) alone or with fresh grape juice in healthy male volunteers, plasma HPLC-UV, non-compartmental analysis; assay type: in vivo, human; conditions: regular intake of 250 mL grape juice for 1 week before omeprazole
[3] = as above; assay type: in vivo, human; conditions: for AUC / Tmax / Cmax: male, human, plasma; for AUC / Cmax: 40 mg
Procedure: The open-label and randomized study design was used to conduct the study in normal, healthy male volunteers. All volunteers were directed not to take any type of medication, including herbal medicines, for 2 weeks prior to clinical trials. Volunteers were divided into two groups. In treatment period-I, after overnight fasting, volunteers in group A received omeprazole (40 mg) alone, and volunteers in group B, […], were administered omeprazole (40 mg) along with grape juice (≈ 250 mL) on the fourth day. […] The volunteers in group B were given omeprazole (40 mg) alone. […] Blood samples (≈ 3 mL) were collected from each volunteer before the administration of the drug, as a blank, and following the administration of the drug at 0 […], and 24 h, in EDTA blood collection tubes. […] It was then centrifuged at 5,000 rpm for 5 min at -3°C. The supernatant was removed and evaporated in a nitrogen flux and then reconstituted in the mobile phase up to 0.5 mL and stored in a refrigerator. The samples were analyzed using a validated HPLC/UV-Vis chromatographic method developed for plasma sample analysis. The plasma samples were thawed on ice at room temperature and processed for analysis using the developed method. A calibration curve was plotted for varying concentrations of omeprazole, keeping the concentration of pantoprazole constant, and used as an internal standard. […] The concentration of pantoprazole was kept at 1 μg/ml as an internal standard. The concentration of omeprazole was 1 μg/mL, 1.5 μg/mL, and 2 μg/mL, and the concentration of internal standard was 1 μg/mL. The pharmacokinetic parameters of plasma omeprazole were calculated for each individual, using non-compartmental analysis of plasma concentration-time data with the help of PK-Summit® software. Cmax, the maximum plasma concentration, and tmax, the time to reach the maximum plasma concentration, were directly calculated from the analyzed data. The terminal half-life was calculated using the equation 0.693/kel, where kel represents the value of the elimination rate constant. The area under the plasma concentration-time curve was calculated according to the trapezoidal rule over the time interval 0 to the last measurable concentration (AUC0-t) and subsequent extrapolation to time infinity (AUC0-∞). The first moment of the plasma concentration vs. time curve (AUMC) is the plasma concentration multiplied by time vs. the time curve calculated by the same trapezoidal rule. The total body clearance (CL/F) was calculated as dose/AUC0-∞. The volume of distribution was calculated by multiplying total body clearance with the mean residence time (MRT). Statistical analysis was performed by paired t-test, and the pharmacokinetic parameters of omeprazole with water were compared with the parameters obtained from omeprazole administered with grape juice.

[4] = previously reported range; cited from earlier work
[5] = with repeated doses; cited from earlier work
[6] = set-up: method as in Dong et al., 1999; conditions: following administration of grape juice, healthy Chinese subjects; ref Dong et al., 1999; cited from earlier work

effect of grape juice on half-life [2]: not affected
AUC ([3]; oral, omeprazole 40 mg with water, read-out: AUC0 ∞): 6000 ± 1540 ng·h/mL
Tmax ([3]; oral, omeprazole 40 mg co-administered with fresh grape juice, read-out: mean time to reach the maximum plasma concentration (converted)): 2.09 h
Cmax ([3]; po, omeprazole 40 mg oral alone with water, mean): 1950 ng/mL
AUC ([3]; po, omeprazole 40 mg oral alone with water, mean, read-out: AUC0t): 5840 ng·h/mL
AUC ([3]; po, omeprazole 40 mg oral alone with water, mean, read-out: AUC0∞): 6000 ng·h/mL
AUC ([3]; po, omeprazole 40 mg oral alone with water, read-out: AUC0 t): 5840 ng·h/mL
AUC ([3]; po, omeprazole 40 mg oral alone, Table 4, read-out: AUC0∞): 6000 ng·h/mL
Cmax ([3]; po, omeprazole 40 mg oral with 250 mL fresh grape juice after prior juice intake, mean): 1020 ng/mL
AUC ([3]; po, omeprazole 40 mg oral with fresh grape juice, mean, read-out: AUC0 t): 2830 ng·h/mL
AUC ([3]; po, omeprazole 40 mg oral with fresh grape juice, mean, read-out: AUC0∞): 2910 ng·h/mL
Tmax ([3]; omeprazole 40 mg oral with fresh grape juice, mean, read-out: Tmax): 2.09 h
AUMC0∞ ([3]; omeprazole 40 mg oral alone with water, mean): 19.6 µg.hr*hr/mL
AUMC0∞ ([3]; omeprazole 40 mg oral alone, Table 4): 19.6 µg.hr*h/mL
AUMC0∞ ([3]; omeprazole 40 mg oral with fresh grape juice, mean): 10.36 µg.h*h/mL
AUMC0∞ ([3]; omeprazole 40 mg oral with grape juice, Table 4): 10.36 µg.hr*h/mL
effect of grape juice on mean value of clearance ([3]; omeprazole with grape juice versus alone): increased
Ratio (OMP + juice/OMP) of AUC0 t ([3]; with grape juice versus alone): 0.4846
Ratio (OMP + juice/OMP) of AUC0∞ ([3]; with grape juice versus alone): 0.485
Ratio (OMP + juice/OMP) of AUMC0∞ ([3]; with grape juice versus alone): 0.5286
Ratio (OMP + juice/OMP) of Cmax ([3]; with grape juice versus alone): 0.5212
Ratio (OMP + juice/OMP) of Tmax ([3]; with grape juice versus alone): 1.045
Structure (SMILES): COc1ccc2[nH]c([S+]([O-])Cc3ncc(C)c(OC)c3C)nc2c1 (centres unmarked) [Omeprazole]
duration of inhibition of gastric acid secretion [1]: up to 36 h
tmax, range already reported [4]: 2 to 3 h
increase of bioavailability [5]: up to 60%

Structure (SMILES): CCOc1ccc(NC(C)=O)cc1 [phenacetin]
change of AUC [6]: reduced AUC

— article PMC11652163, “Impact of fresh grape juice on the pharmacokinetics of omeprazole: results of a food–drug interaction study” (Frontiers in Pharmacology, 2024)
